Source: patent publication US6656695B2, “Biomap characterization of biologically active agents” (Bioseek, Inc., priority 2000, dated 2003)

Columns and labels:
HUVEC cells [1] = test: optimized inflammatory assay combination: HUVEC treated with TNF-α+IFN-γ+IL-1, readout parameters by cell-based ELISA (biomap); design: species or system human; settings: for activity (alteration of the biomap) in the optimized assay combination: HUVEC, TNF-α+IFN-γ+IL-1, 24 hours, 10 μM NHGA, 200 μM PDTC, 9 μM PD098059, PPM-18 2 μM, AG126 25 μM, p55-Fc 50 ng/ml; for cellular toxicity: either drug alone at higher concentrations (2-fold) than PPM-18 2 μM / AG126 25 μM
Experimental: Primary human umbilical vein endothelial cells (HUVEC) are used. Other cells that may replace HUVEC in the screen include primary microvascular endothelial cells, aortic or arteriolar endothelial cells or endothelial cell lines such as EAhy926 or E6-[…]-5-2G cells or human telomerase reverse transcriptase-expressing endothelial cells (Simmons, J. Immunol., 148:267, 1992; Rhim, Carcinogenesis 19:673, 1998; Yang, J. Biol. Chem. 274:26141, 1999). 2×10^4 cells/ml are cultured to confluence in EGM-2 (Clonetics). Other media that may replace EGM-2 include EGM (Clonetics) and Ham's F12K medium supplemented with 0.1 mg/ml heparin and 0.03-0.05 mg/ml endothelial cell growth supplement (ECGS) and 10% FBS, or medium M199 (Life Technologies, Inc.) containing 20% fetal bovine serum and 2 ng/ml basic fibroblast growth factor (Jaffe, J. Clin. Invest. 52:2745, 1973; Hoshi, PNAS 81:6413, 1984). The disease environment present in chronic inflammatory diseases, such as Crohn's disease, differs from the normal condition by increased presence of multiple biologically active agents including IL-1, TNF-α, and IFN-γ (Woywodt, 1994; Kakazu, 1999). Other biologically active agents that may be increased in chronic inflammatory disease environments include IL-4, IL-6, IL-8, IL-12, IL-13, IL-18, TGFbeta, and histamine, as well as activated leukocytes and their products (Daig, 1996, Gut 38:216; Woywodt, 1994, Eur. cytokine Netw. 5:387; Kakazu, 1999 Am J. Gastroenterol. 94:2149; Pizarro, 1999, J. Immunol. 162:6829; Monteleone, 1999, J. Immunol. 163:143; […] Enteral Nutr 23:S20; Beck, 1999, […]. Bowel Dis. 5:44). Optimized assay combinations will contain at least two, and preferably three, four or more of these biologically active agents. […] After 24 hours, cultures are washed and evaluated for the presence of the parameters ICAM-1 (1), VCAM-1 (2), E-selectin (3), IL-8 (4), CD31 (5), HLA-DR (6) and MIG (7) by cell-based ELISA as described (Melrose, J. Immunol. 161:2457, 1998). For this, plates are blocked with 1% Blotto for 1 hr, and treated with primary antibodies (obtained from Pharmingen and Becton Dickinson) at 1 ng/ml for 2 hr. After washing, secondary peroxidase-conjugated anti-mouse IgG antibody (Promega) at 1:2500 is applied for 45 min. After washing, TMB substrate (Kierkegaard & Perry) is added and color developed. Development is stopped by addition of H2SO4 and the absorbance at 450 nm (subtracting the background absorbance at 600 nm) is read with a Molecular Dynamics plate reader. The relative expression levels of each parameter are indicated by the OD at 450 nm shown along the y-axis. The mean +/- SD from triplicate samples is shown. […] Confluent cultures of HUVEC cells are treated with TNF-α (5 ng/ml)+IFN-γ (100 ng/ml)+IL-1 (1 ng/ml) in the presence or absence of neutralizing anti-TNF-α or control antibody (Goat anti-IgG). […] In FIG. 3A, the relative expression of each parameter is shown along the y-axis as average value of the OD measured at 450 nm of triplicate samples. The mean +/- SD from triplicate samples are shown. * indicates p<0.05 comparing results obtained with anti-TNF-α to the control. […] A color-coded representation of the biomaps developed from the data is shown. […] J. Physiol. 273(2 Pt 2):[…], 1997), the corticosteroids dexamethasone and prednisolone, echinacea, AA861 (Lee, J. Immunol. 158, 3401, 1997), apigenin ([…], Am. J. Pathol. 147:278, 1995), nordihydroguaiaretic acid (NHGA) (Brennen, Biochem. […] J. Immunol. 27:2172, 1997), pyrrolidine dithiocarbamate (PDTC) (Boyle, Circulation, 98, (19 Suppl):11282, 1998), PPM-18 (Yu, Biochem. […] Biol. Chem. 273:18165, 1998), AG126 (Novogrodsky, Science 264, 1319, 1994), and neutralizing anti-TNF-α antibody. Color-coded representations of the resulting biomaps are shown. Confluent cultures of HUVEC cells are treated with TNF-α (5 ng/ml)+IFN-γ (100 ng/ml)+IL-1 (1 ng/ml) in the presence or absence of agents or buffers at the concentrations indicated in Table 1. […]

HUVEC cells [2] = test: multiplex (secondary) assay combinations: HUVEC with single pathway activators or media, biomaps by cell-based ELISA; design: species or system human; settings: TNF-α, IFN-γ, IL-1 alone or combined; 20 μM AA861, 10 μM NHGA; FIG. 5
Experimental: Confluent cultures of HUVEC cells are treated with TNF-α (5 ng/ml), IFN-γ (100 ng/ml), IL-1 (20 ng/ml), the combination of TNF-α+IFN-γ+IL-1, or media (no cytokine) in the presence or absence of neutralizing anti-TNF-α, 20 μM AA861 or 10 μM NHGA. After 24 hours, cultures are washed and evaluated for the cell surface expression of ICAM-1 (1), VCAM-1 (2), E-selectin (3), IL-8 (4), and MIG (5) by cell-based ELISA performed as described in FIG. 1. A color-coded representation of the resulting biomaps derived from the data is shown in FIG. 5, coded as described in FIG. 2B.
Confirmation is performed by evaluating the test agent in assay combinations that include both physiologic and alternative pathway activators. […] After 24 hours, cultures are washed and evaluated for the cell surface expression of ICAM-1 (1), VCAM-1 (2), E-selectin (3), CD31 (4), and MIG (5) by cell-based ELISA performed as described in FIG. 1. […]
In FIG. 7B, confluent cultures of HUVEC cells are treated with TNF-α (5 ng/ml), IFN-γ (100 ng/ml), IL-1 (20 ng/ml), the combination of TNF-α+IFN-γ+IL-1, or media in the presence or absence of p55-Fc. After 24 hours, cultures are washed and evaluated for the cell surface expression of ICAM-1 (1), VCAM-1 (2), E-selectin (3), IL-8 (4), and MIG (5) by cell-based ELISA performed as described in FIG. 1. […]

N#CC(C#N)=Cc1ccc([N+](=O)[O-])c(O)c1 [AG126]
activity (alteration of the biomap) in the optimized assay combination (HUVEC cells [1]): active compounds
cellular toxicity (HUVEC cells [1]): cellular toxicity

CC(Cc1ccc(O)c(O)c1)C(C)Cc1ccc(O)c(O)c1 (centres unmarked) [NHGA, nordihydroguaiaretic acid]
activity (alteration of the biomap) in the optimized assay combination (HUVEC cells [1]): altered biomaps
cytokine signaling pathways targeted (HUVEC cells [2]): target multiple cytokine signaling pathways

COc1cccc(-c2cc(=O)c3ccccc3o2)c1N [PD098059]
activity (alteration of the biomap) in the optimized assay combination (HUVEC cells [1]): altered biomaps

S=C(S)N1CCCC1 [PDTC, pyrrolidine dithiocarbamate]
activity (alteration of the biomap) in the optimized assay combination (HUVEC cells [1]): altered biomaps

O=C(NC1=CC(=O)c2ccccc2C1=O)c1ccccc1 [PPM-18]
activity (alteration of the biomap) in the optimized assay combination (HUVEC cells [1]): active compounds
cellular toxicity (HUVEC cells [1]): cellular toxicity
